Patent publication US10307383B2, “Cosmetic composition for preventing or ameliorating hypersensitive skin comprising cedrol or derivatives thereof, or pharmaceutically acceptable salts thereof” (University of Seoul Industry Cooperation Foundation, priority 2017, dated 2019)

Experiments:
Assay type in all cases: in vivo, Balb/c mouse
[1] = tested on: psoriasis induced mice (imiquimod); test: Recovery effect on ear thickness of the psoriasis induced mice after termination of imiquimod (PASI)
Experimental: (§1) Imiquimod was applied to the psoriasis induced mice which had developed psoriasis for a week in Example <2-1>. The application was stopped 8 days after the application began. The groups CON and IMQ were treated with distilled water, the group C was treated with cedrol, the group CA was treated with cedryl acetate, the group CE was treated with alpha-cedrene alone at the concentration of 100 mg/kg in 200 μl, every day via oral-administration. Day 8 was the day the imiquimod application was stopped, since then the compounds were administered for 1 week once a day, during which photo-recording was performed (FIGS. 13A˜13D).
The psoriasis area severity index (Psoriasis Area Severity Index, PASI) was given from the point 1 to point 4, based on which the recovery effect on the ear thickness was evaluated.

[2] = tested on: psoriasis induced mice (imiquimod); test: Recovery effect on hemorrhage spots of the psoriasis induced mice
Experimental: as §1
The psoriasis induced mice orally administered with cedrol, cedryl acetate, and alpha-cedrene of Example <3-1> were observed by the naked eye, and the number of mice showing the recovery of hemorrhage spots was counted.

[3] = tested on: IL-17A expression in the spleen; test: Inhibition of IL-17A expression in the spleen of the psoriasis induced mice (real-time PCR); conditions: 100 mg/kg oral, IMQ applied; for IL-17A expression value in the spleen (non-treated control group regarded as value 1): real-time PCR, IMQ alone 54.9±5.5
Experimental: (§2) To investigate the delayed effect of cedrol, cedryl acetate, and alpha-cedrene on the development of psoriasis, total 5 groups of mice were prepared (8 mice/group). First, the hair of the entire back of the 8-week-old male Balb/c mouse whose immune system was weakened was removed by using a hair clipper (Kimlaube Hair pen 325,327, Rikei, Korea). In the middle of the shaved back of the mouse, 2 mg of imiquimod (3M Health Care Limited, England) was applied in the area of 2 cm×1.5 cm and also 1,125 mg of imiquimod was applied on the right ear of the mouse every day once a day to induce psoriasis.
(§3) The mice prepared above were divided into the distilled water treated group (IMQ), the cedrol treated group (C), the cedryl acetate treated group (CA), and the alpha-cedrene treated group (CE). At this time, the mice were orally treated with distilled water at the concentration of 200 μl/mouse and cedrol or its derivatives at the concentration of 200 μl/mouse (100 mg/kg). The day when distilled water or the compound administration started was recorded as day 0 and the administration was performed once a day for a week, during which photo-recording was performed every day (FIGS. 2A˜2D). In the meantime, instead of applying imiquimod, 40 mg of vaseline was applied on the back of the control group (CONT) and 22.5 mg of vaseline was applied on the right ear of the control group. And the control group was orally administered with distilled water (200 μl/mouse).
The inhibition of IL-17A expression in the spleen of the psoriasis Induced mice according to the oral administration of cedrol, cedryl acetate, and alpha-cedrene was investigated by real-time PCR (polymerase chain reaction).
Particularly, the spleen was extracted from the psoriasis Induced mice orally administered with cedrol, cedryl acetate, and alpha-cedrene of Example <2-1>. Total RNA was extracted from the spleen by the conventional method. To synthesize cDNA, 2 μg of RNA was loaded in 9 μl of DEPC (RNase free water), indicating the dilution of the concentration. 1 μl of oligo dT was added thereto, followed by reaction at 70° C. for 10 minutes. The sample was treated on ice for 5 minutes, to which 2 μl of 10× reaction buffer, 2 μl of dNTP (10 mM each), 1 μl of M-MLV reverse transcriptase, and 5 μl of DNase free water were added to make the total volume of the reaction mixture 20 μl. The mixture was reacted at 42° C. for 1 hour to synthesize cDNA. The reaction mixture was heated at 72° C. for 10 minutes to remove the reverse transcriptase activity. Then, the reaction mixture was stored at −20° C. Real-time PCR was performed by using AMPIGENE qPCR 1-Step Green Kit (Enzo Life Sciences Inc, USA). […]

[4] = tested on: psoriasis induced mice (imiquimod); test: Skin hemorrhage spot reduction effect in the psoriasis induced mice; conditions: for number of mice showing hemorrhage spots: IMQ applied, 8 mice/group
Experimental: as §2, §3
The psoriasis induced mice orally administered with cedrol, cedryl acetate, and alpha-cedrene of Example <2-1> were observed by the naked eye, and the number of mice showing hemorrhage spots was counted. Hemorrhage spot is a symptom of psoriasis, and when IMQ is applied, the number of skin hemorrhage spots increases as time goes by.

[5] = tested on: psoriasis induced mice (imiquimod); test: Accelerating effect on hair regrowth of the psoriasis induced mice; conditions: for number of mice showing hair regrowth: 8 mice/group
Experimental: as §1
The psoriasis induced mice orally administered with cedrol, cedryl acetate, and alpha-cedrene of Example <3-1> were observed by the naked eye, and the number of mice showing hair regrowth was counted.

[6] = tested on: psoriasis induced mice (imiquimod); test: Skin flair reduction effect in the psoriasis induced mice (PASI); conditions: for skin flair mean point (PASI): day 7, 100 mg/kg oral once a day, IMQ applied, IMQ alone 4.00
Experimental: as §2, §3
Then, the psoriasis area severity index (PASI) was calculated to confirm the reduction effect of the compounds on skin flair. Skin flair is a symptom of psoriasis. The application of IMQ can induce skin flair.

[7] = tested on: psoriasis induced mice (imiquimod); test: Recovery effect on skin wrinkles of the psoriasis induced mice
Experimental: as §1
The psoriasis induced mice orally administered with cedrol, cedryl acetate, and alpha-cedrene of Example <3-1> were observed by the naked eye, and the number of mice showing the recovery of skin wrinkles was counted.

[8] = tested on: psoriasis induced mice (imiquimod); test: Ear thickness reduction effect in the psoriasis induced mice (PASI); conditions: for mean ear thickness point (PASI): day 7, 100 mg/kg oral once a day, IMQ applied, IMQ alone 3.5
Experimental: as §2, §3
Then, the psoriasis area severity index (PASI) was calculated with the range of 1˜4 to confirm the reduction effect of the compounds on the ear thickness.

[9] = tested on: psoriasis induced mice (imiquimod); test: Recovery effect on keratosis of the psoriasis induced mice after termination of imiquimod (PASI)
Experimental: as §1
Then, the psoriasis area severity index (Psoriasis Area Severity Index, PASI) was calculated, based on which the recovery effect on keratosis was evaluated.

[10] = 100 mg/kg oral after termination of imiquimod
[11] = day 8 (imiquimod application stopped), 100 mg/kg oral
[12] = day 8, 100 mg/kg oral, 8 mice/group
[13] = day 16, 100 mg/kg oral after termination of imiquimod
[14] = day 7, 100 mg/kg oral, IMQ alone 5
[15] = day 16, 100 mg/kg oral after termination of imiquimod, distilled water 5
[16] = day 13, 100 mg/kg oral after termination of imiquimod
[17] = day 15, 100 mg/kg oral once a day after termination of imiquimod

Row | SMILES | PASI reflecting the ear thickness [1, 11] | number of mice showing hemorrhage spots [2, 12] | number of mice showing hemorrhage spots [2, 13] | IL-17A expression value in the spleen (non-treated control group regarded as value 1) [3] | number of mice showing hemorrhage spots ([4]; day 5, 100 mg/kg oral) | number of mice showing hemorrhage spots [4, 14] | number of mice showing hair regrowth [5, 15] | skin flair mean point (PASI) [6] | number of mice showing skin wrinkles [7, 12] | number of mice showing skin wrinkles [7, 13] | mean ear thickness point (PASI) [8] | PASI reflecting keratosis [9, 11] | number of mice showing hair regrowth [5, 16] | also measured
1 | CC(=O)O[C@]1(C)CC[C@@]23C[C@@H]1C(C)(C)[C@@H]2CC[C@H]3C [cedryl acetate, Cedryl acetate] | 4.0±0.6 point | 6 mice | no mouse | 7.4±0.7 | one | one | 7 mice | 3.16 point | 3 mice | no mouse | 2.3 point | 4.0±0.6 point | – | ear thickness recovery effect, comparison in words [1, 10]: strongest recovery effect; ear thickness recovered to normal (in words) ([1]; from day 15, 100 mg/kg oral after termination of imiquimod): all 8 mice were recovered to normal; skin hemorrhage spot reduction effect, comparison in words ([4]; 100 mg/kg oral, 7 days): strongest reduction effect; number of mice showing hair regrowth ([5]; day 14, 100 mg/kg oral after termination of imiquimod): one; ear thickness reduction effect, comparison in words ([8]; 100 mg/kg oral, 7 days): strongest reduction effect; PASI reflecting keratosis ([9]; day 14, 100 mg/kg oral once a day after termination of imiquimod): 1.0±0.0 point
2 | C[C@@H]1CC[C@H]2C(C)(C)[C@H]3C[C@@]12CC[C@@]3(C)O [cedrol, Cedrol] | 4.0±0.6 point | 6 mice | – | 1.1±0.1 | – | 3 mice | all the mice | 3.33 point | 5 mice | – | 2.6 point | 3.0±0.6 point | 2 mice | PASI reflecting the ear thickness ([1]; day 16, 100 mg/kg oral once a day after termination of imiquimod): 0.7±0.6 point; hemorrhage spot recovery effect, comparison in words [2, 10]: strongest recovery effect; number of mice showing hemorrhage spots ([2]; day 12, 100 mg/kg oral after termination of imiquimod): no mouse; number of mice showing hemorrhage spots ([4]; day 4, 100 mg/kg oral): one; accelerating effect on hair regrowth, comparison in words [5, 10]: strongest accelerating effect; skin wrinkle recovery effect, comparison in words [7, 10]: strongest recovery effect; number of mice showing skin wrinkles ([7]; after day 15, 100 mg/kg oral after termination of imiquimod): no mouse; keratosis recovery effect, comparison in words [9, 10]: strongest recovery effect; keratosis recovered to normal (in words) ([9]; on day 15, 100 mg/kg oral after termination of imiquimod): all 8 mice were recovered to normal
3 | CC1=CC[C@@]23C[C@@H]1C(C)(C)[C@@H]2CC[C@H]3C [alpha-cedrene, Alpha-cedrene] | 4.0±0.0 point | 4 mice | no mouse | 31.0±3.1 | two | one | all the mice | 3.33 point | 3 mice | no mouse | 2.6 point | 4.0±0.6 point | one | PASI reflecting the ear thickness [1, 17]: 0.7±0.6 point; IL-17A expression inhibition effect in the spleen, comparison in words [3]: strongest inhibition effect; skin flair reduction effect, comparison in words ([6]; 100 mg/kg oral, 7 days): strongest reduction effect; PASI reflecting keratosis [9, 17]: 0.3±0.6 point
